The source of these data is patent US20260102501A1, “ANTI-CANCER NUCLEAR HORMONE RECEPTOR-TARGETING COMPOUNDS” (Nuvation Bio Inc., priority 2022, published 2026).

Test [1] has as its system LNCap cells. Put plainly: Cell viability assay (CellTiterGlo). It counts as cell-based. Conditions: Homo sapiens, 144 h, read-out: LNCap (IC50, nM).
For test [2], the system named is T47D cells. Put plainly: Cell viability assay (CellTiterGlo). It counts as cell-based. Conditions: Homo sapiens, 144 h, read-out: T47D (IC50, nM).
Test [3] deals with T1, Progesterone Receptor (PR)-LBD and coactivator peptide (Homo sapiens, UniProt P06401).
T1 sequence (P06401 679-913 limits assumed): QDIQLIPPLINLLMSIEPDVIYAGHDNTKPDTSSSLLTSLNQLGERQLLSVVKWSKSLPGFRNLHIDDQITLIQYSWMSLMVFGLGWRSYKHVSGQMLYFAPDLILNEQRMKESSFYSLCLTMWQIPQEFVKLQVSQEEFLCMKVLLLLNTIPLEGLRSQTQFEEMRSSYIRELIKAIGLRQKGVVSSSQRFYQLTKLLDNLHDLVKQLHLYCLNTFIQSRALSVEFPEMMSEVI
Put plainly: PR coactivator antagonist assay. Conditions: 2.5 nM PR-LBD, 10 nM progesterone-induced fluorescence response.

The test system of test [4] is IEC6 cells. Put plainly: Cell viability assay (CellTiterGlo). Conditions: Rattus norvegicus, IEC-6, 144 h, read-out: IEC-6 (IC50, nM).
Protocol: Cell viability assay: LNCap, 22Rv1, MCF7, MDAMB361, T47D, and IEC6 cells were seeded at a density of 500-2000 cells/well in 96 well plates, and a ‘T0’ (timepoint 0) was included along with the assay plate. The plates were then incubated at 37° C., 5% CO2 in a cell culture incubator overnight. On the next day, the ‘T0’ plate was assayed using CellTiterGlo (Promega, Inc) according to the manufacturer's instructions. The appropriate compounds were diluted in DMSO and added to the assay plate (final DMSO concentration of 0.1-0.2%) on the next day. The assay plates were incubated for 6 days at 37° C., 5% CO2. After the incubation period, the plates were assayed using CellTiterGlo (Promega, Inc) according to the manufacturer's instructions and luminescence was read on the En Vision plate reader. […] GraphPadPrism was used to analyze the data and determine GI50/IC50 values.
The target in test [5] is T2, AR (cytosol from LnCaP cells) (Homo sapiens, UniProt P10275, T878A).
T2 sequence (P10275 1-920 T878A): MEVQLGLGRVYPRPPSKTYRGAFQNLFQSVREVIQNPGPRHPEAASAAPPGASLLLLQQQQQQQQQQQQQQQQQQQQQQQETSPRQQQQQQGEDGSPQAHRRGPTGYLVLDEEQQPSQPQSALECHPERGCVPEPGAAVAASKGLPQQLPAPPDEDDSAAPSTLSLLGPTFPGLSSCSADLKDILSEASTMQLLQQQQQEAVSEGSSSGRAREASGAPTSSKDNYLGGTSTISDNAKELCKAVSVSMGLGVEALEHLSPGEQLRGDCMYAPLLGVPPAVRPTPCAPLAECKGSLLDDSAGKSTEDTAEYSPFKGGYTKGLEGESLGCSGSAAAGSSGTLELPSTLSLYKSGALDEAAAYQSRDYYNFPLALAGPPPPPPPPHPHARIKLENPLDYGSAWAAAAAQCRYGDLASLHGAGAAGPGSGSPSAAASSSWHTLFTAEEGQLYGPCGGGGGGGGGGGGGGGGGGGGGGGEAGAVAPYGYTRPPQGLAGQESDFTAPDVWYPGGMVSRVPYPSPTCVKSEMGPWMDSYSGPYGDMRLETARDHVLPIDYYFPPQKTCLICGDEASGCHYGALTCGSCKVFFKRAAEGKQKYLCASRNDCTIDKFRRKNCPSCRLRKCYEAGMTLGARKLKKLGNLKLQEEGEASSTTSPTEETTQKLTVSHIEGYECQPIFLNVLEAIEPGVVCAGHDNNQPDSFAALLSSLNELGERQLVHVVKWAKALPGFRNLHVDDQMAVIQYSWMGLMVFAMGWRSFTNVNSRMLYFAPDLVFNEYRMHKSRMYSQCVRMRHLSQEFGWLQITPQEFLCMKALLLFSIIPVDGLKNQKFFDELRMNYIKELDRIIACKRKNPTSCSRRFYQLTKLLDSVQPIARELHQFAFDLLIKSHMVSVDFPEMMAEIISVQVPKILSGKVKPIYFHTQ
Put plainly: AR binding assay (3H-R1881 displacement).
Protocol: The plate was then centrifuged at 3000 rpm for 30 minutes at 4° C.

The target in test [6] is T3, ligand binding domain of the glucocorticoid receptor (HEK293 cells stably expressing) (Homo sapiens, UniProt P04150).
T3 sequence (P04150 524-758 limits assumed): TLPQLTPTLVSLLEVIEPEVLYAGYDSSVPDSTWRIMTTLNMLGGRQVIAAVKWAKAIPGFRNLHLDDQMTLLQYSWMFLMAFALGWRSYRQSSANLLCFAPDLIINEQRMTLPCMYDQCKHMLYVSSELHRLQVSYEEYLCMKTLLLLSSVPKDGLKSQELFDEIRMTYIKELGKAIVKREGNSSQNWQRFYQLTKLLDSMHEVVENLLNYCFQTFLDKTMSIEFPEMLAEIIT
Put plainly: GR antagonism assay (luciferase reporter).

Test [7] concerns the target T4, GR (cytosol from IM-9 cells) (Homo sapiens, UniProt P04150).
T4 sequence (P04150 1-777): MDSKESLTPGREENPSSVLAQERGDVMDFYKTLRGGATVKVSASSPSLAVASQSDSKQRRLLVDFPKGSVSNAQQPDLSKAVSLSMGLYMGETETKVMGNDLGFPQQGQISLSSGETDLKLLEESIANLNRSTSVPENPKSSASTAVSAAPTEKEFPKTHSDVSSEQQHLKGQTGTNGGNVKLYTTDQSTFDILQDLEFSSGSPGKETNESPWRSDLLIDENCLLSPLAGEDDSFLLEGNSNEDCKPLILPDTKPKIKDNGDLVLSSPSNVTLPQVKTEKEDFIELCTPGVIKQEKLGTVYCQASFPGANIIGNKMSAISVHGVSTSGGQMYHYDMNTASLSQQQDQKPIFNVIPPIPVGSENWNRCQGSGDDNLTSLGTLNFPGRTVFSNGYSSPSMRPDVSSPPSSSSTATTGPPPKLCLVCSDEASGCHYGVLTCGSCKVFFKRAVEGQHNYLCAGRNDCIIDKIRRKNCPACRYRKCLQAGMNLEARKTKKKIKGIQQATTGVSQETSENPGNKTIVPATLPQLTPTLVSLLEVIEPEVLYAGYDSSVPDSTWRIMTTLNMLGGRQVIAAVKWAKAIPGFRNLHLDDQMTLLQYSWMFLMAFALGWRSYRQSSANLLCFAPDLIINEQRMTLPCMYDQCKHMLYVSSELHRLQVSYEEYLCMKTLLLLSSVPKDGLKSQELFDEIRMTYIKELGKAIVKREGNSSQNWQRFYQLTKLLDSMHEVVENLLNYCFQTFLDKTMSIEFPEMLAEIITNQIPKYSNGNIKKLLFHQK
Put plainly: GR binding assay (3H-Dexamethasone displacement).

Test [8] deals with T5, Progesterone PR-B receptors from human breast carcinoma T47D cells (Homo sapiens, UniProt P06401).
T5 sequence (P06401 1-933): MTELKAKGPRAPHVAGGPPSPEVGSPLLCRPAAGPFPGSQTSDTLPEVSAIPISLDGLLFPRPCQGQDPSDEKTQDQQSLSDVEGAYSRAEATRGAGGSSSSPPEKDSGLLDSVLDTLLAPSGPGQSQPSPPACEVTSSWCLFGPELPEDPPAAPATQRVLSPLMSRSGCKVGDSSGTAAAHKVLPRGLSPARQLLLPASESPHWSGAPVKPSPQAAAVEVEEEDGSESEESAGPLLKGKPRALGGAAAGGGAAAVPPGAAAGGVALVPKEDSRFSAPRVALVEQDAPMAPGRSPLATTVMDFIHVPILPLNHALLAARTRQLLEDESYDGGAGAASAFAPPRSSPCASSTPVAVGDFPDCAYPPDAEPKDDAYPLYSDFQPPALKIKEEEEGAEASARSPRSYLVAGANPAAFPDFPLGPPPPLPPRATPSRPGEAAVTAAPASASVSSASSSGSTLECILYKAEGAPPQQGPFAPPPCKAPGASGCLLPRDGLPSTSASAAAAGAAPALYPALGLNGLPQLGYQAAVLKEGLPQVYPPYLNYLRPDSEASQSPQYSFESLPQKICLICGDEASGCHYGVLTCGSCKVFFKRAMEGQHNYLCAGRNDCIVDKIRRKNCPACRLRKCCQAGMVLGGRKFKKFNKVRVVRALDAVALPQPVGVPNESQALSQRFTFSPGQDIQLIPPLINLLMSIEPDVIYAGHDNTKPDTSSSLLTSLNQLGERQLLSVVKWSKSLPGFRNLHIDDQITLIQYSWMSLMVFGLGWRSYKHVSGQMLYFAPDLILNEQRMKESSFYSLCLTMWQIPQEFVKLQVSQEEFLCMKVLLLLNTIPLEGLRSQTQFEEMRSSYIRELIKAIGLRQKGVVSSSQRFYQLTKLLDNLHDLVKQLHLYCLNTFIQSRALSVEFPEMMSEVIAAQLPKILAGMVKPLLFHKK
The test is described as follows: PR binding assay ([3H] Progesterone displacement).

Molecules are shown by their SMILES.

Consider `CC[C@@]1(O)C(=O)OCc2c1cc1n(c2=O)Cc2cc3c(CN(C)C)c(OC(=O)N4CCN(CCCCCCCN(C)c5ccc([C@H]6C[C@@]7(C)[C@@H](CC[C@]7(OC(C)=O)C(C)=O)[C@@H]7CCC8=CC(=O)CCC8=C76)cc5)CC4)ccc3nc2-1` [Compound 6, (S)-10-((Dimethylamino)methyl)-4-ethyl-4-hydroxy-3,14-dioxo-3,4,12,14-tetrahydro-1H-pyrano[3′,4′:6,7]indolizino[1,2-b]quinolin-9-yl 4-(7-((4-((8S,11R,13S,14S,17R)-17-acetoxy-17-acetyl-13-methyl-3-oxo-2,3,6,7,8,11,12,13,14,15,16,17-dodecahydro-1H-cyclopenta[a]phenanthren-11-yl)phenyl)(methyl)amino)heptyl)piperazine-1-carboxylate], for which the IC50 in test [1] was 101 to 1000 nM; in test [2], 10 to 100 nM; in test [4], more than 1000 nM; in test [5], 10 to 100 nM; in test [6] it was 10 to 100 nM; in test [7], less than 10 nM. The molecule further returned an IC50 in test [8] of less than 10 nM. The PR antagonism result in test [3] is on record as “a (IC50 =< 10 nM)”.
For the molecule `CC[C@@]1(OC(=O)CN(C)C)C(=O)OCc2c1cc1n(c2=O)Cc2cc3c(CN(C)C)c(OC(=O)N4CCN(CCCCCCN(C)c5ccc([C@H]6C[C@@]7(C)[C@@H](CC[C@]7(OC(C)=O)C(C)=O)[C@@H]7CCC8=CC(=O)CCC8=C76)cc5)CC4)ccc3nc2-1` [Compound No. 14, (S)-10-((Dimethylamino)methyl)-4-((dimethylglycyl)oxy)-4-ethyl-3,14-dioxo-3,4,12,14-tetrahydro-1H-pyrano[3′,4′:6,7]indolizino[1,2-b]quinolin-9-yl 4-(6-((4-((8S,11R,13S,14S,17R)-17-acetoxy-17-acetyl-13-methyl-3-oxo-2,3,6,7,8,11,12,13,14,15,16,17-dodecahydro-1H-cyclopenta[a]phenanthren-11-yl)phenyl)(methyl)amino)hexyl)piperazine-1-carboxylate], the IC50 was 101 to 1000 nM in test [1]; 10 to 100 nM in test [2]; 10 to 100 nM in test [4]; 10 to 100 nM in test [5]; 10 to 100 nM in test [6]; less than 10 nM in test [7]. The molecule further gave an IC50 in test [8] of less than 10 nM. Besides, the PR antagonism entry in test [3] is listed as “a (IC50 =< 10 nM)”.
Consider `CC[C@@]1(O)C(=O)OCc2c1cc1n(c2=O)Cc2cc3c(CN(C)C)c(OC(=O)N4C5CC4CN(CCCCCCN(C)c4ccc([C@H]6C[C@@]7(C)[C@@H](CC[C@]7(OC(C)=O)C(C)=O)[C@@H]7CCC8=CC(=O)CCC8=C76)cc4)C5)ccc3nc2-1` [Compound 3, (S)-10-((Dimethylamino)methyl)-4-ethyl-4-hydroxy-3,14-dioxo-3,4,12,14-tetrahydro-1H-pyrano[3′,4′:6,7]indolizino[1,2-b]quinolin-9-yl 3-(6-((4-((8S,11R,13S,14S,17R)-17-acetoxy-17-acetyl-13-methyl-3-oxo-2,3,6,7,8,11,12,13,14,15,16,17-dodecahydro-1H-cyclopenta[a]phenanthren-11-yl)phenyl)(methyl)amino)hexyl)-3,6-diazabicyclo[3.1.1]heptane-6-carboxylate], for which the IC50 was 101 to 1000 nM in test [1]; 10 to 100 nM in test [2]; more than 1000 nM in test [4]; 10 to 100 nM in test [5]; 10 to 100 nM in test [6]; less than 10 nM in test [7]. Moreover, the IC50 in test [8] was less than 10 nM. For the same molecule, in test [3], the PR antagonism entry was “a (IC50 =< 10 nM)”.
